Measurements taken from the METLIN SMRT retention time set (Domingo-Almenara et al. 2019).

Test: gradient 5% acetonitrile 3 min, to 50% in 2 min, to 85% in 15 min, held 3 min, 100 µL/min
Conditions: column: Zorbax Extend-C18 2.1 x 50 mm; eluents: water / acetonitrile, 0.1% formic acid
Procedure, shortened: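 Retention times come from adduct peaks that were picked computationally and then checked by hand. The standards, pure and pooled in mixtures of ~100 molecules, were run on a Zorbax Extend-C18 column (2.1 × 50 mm, 1.8 μm) at 100 μL/min with water and acetonitrile, each with 0.1% formic acid. Detection was by quadrupole time-of-flight mass spectrometry in positive and negative ionization mode, with a dead volume of 40 μL and a dwell volume of 900 μL.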

| Compound | RP-LC retention time |
| --- | --- |
| CC(C)(C)c1ccc(OCC(O)CN)cc1 (centres undefined) | 585 s |
| Cn1nnnc1SCCNCc1ccc2c(c1)OCCO2 | 577 s |
| Clc1nnc2c3ccccc3ccn12 | 747 s |
| CCOc1ccc(-c2nc(-c3cccc(-c4ccnn4C)c3)no2)cc1OCC | 1210 s |
| O=C(NCc1ccc2c(c1)OCO2)C1CCCN(C(=O)c2cc(-c3ccccn3)n[nH]2)C1 (centres undefined) | 655 s |
| O=C(Nc1cccc(F)c1)N1CC(Oc2ccc(-c3nc(-c4ccccc4)no3)cc2)C1 | 1200 s |
| CCN1CCCC(OC(=O)C(c2ccccc2)c2ccccc2)C1 (centres undefined) | 802 s |
| O=C(NCc1ccccc1)c1cccn1Cc1noc(-c2ccccc2)n1 | 981 s |
| CC(C)NC(=O)N(C1CC1)C1CCOC2(CCN(C(=O)Cc3ccsc3)CC2)C1 (centres undefined) | 770 s |
| Cc1nc(C)c(C(=O)Nc2nc(-c3ccc4c(c3)CCCC4)cs2)s1 | 1170 s |
| COc1ccc(OC)c(NC(=O)Nc2cc(F)c3nc(N4CCOCC4)ccc3c2)c1 | 863 s |
| O=c1c2cnn(Cc3ccccc3F)c2ncn1Cc1cccc(C(F)(F)F)c1 | 928 s |
| O=C(Nc1sc2c(c1C(c1cccnc1)N1CCN(c3ccccn3)CC1)CCCC2)c1ccco1 (centres undefined) | 676 s |
| CS(=O)(=O)N1CCC(C(=O)N2CCC3(CC2)OCCS3)CC1 | 625 s |
| COc1ccc(-c2cn3ccn(-c4ccc(Br)cc4)c(=O)c3n2)cc1OC | 795 s |
| O=C(Nc1ccccc1F)N1CC(Oc2cccc(-c3nc(-c4ccccc4)no3)c2)C1 | 1140 s |
| c1ccc(-c2nc(-c3ccncc3)no2)c(OC2CCNC2)c1 (centres undefined) | 604 s |
| O=S(=O)(c1ccccc1-c1nc(-c2ccccc2)no1)N1CCN(C2CCCCC2)CC1 | 755 s |
| O=S(=O)(c1ccc(F)cc1)N1CCC2(CC1)NCCN=C2NCc1ccc(Cl)cc1 | 722 s |
| Cc1cc(Cl)ccc1S(=O)(=O)N1CCCC1c1nc(-c2cccc(F)c2)no1 (centres undefined) | 1220 s |
| Cc1cccc2c1ncn1c(=O)n(CC(=O)Nc3ccc4c(c3)OCCO4)nc21 | 637 s |
| COc1ccc2[nH]cc(CN3CC[C@H](c4n[nH]c(C)n4)[C@H](N(C)C)C3)c2c1 | 547 s |
| COc1ccccc1CC1C(=O)Nc2ccc(Br)cc21 (centres undefined) | 976 s |
| CC(=O)N1CCc2cc(N3CC(C(=O)NC4CCCCCC4)CC3=O)ccc21 (centres undefined) | 723 s |
| COCCOc1ccc2c(n1)CCN(C(=O)NCCC(C)C)C2 | 762 s |
| CC(C)NC(=O)Cn1cnc2c(sc3nc(-c4ccccc4)ccc32)c1=O | 817 s |
| O=C(Cc1ccc(Cl)cc1)N1CCc2nc[nH]c2C1 | 590 s |
| Cc1noc2nc(C)n(CC(=O)NCc3cccc(F)c3)c(=O)c12 | 740 s |
| O=C(Nc1cccc(Cl)c1)Nc1cnn(-c2ncncc2N2CCOCC2)c1 | 735 s |
| CCOc1ccccc1NC(=O)CN1C(=O)C(O)(c2cccc(C)c2)c2ccccc21 (centres undefined) | 640 s |

Second part, the molecule after the results:

| RP-LC retention time | Compound |
| --- | --- |
| 799 s | Cc1oc(-c2[nH]ncc2C(=O)N2CCCC2)cc1S(=O)(=O)NCCCc1ccccc1 |
| 674 s | Cc1ccc(-c2nc3cccnc3n2CCCNC(=O)NCc2ccco2)cc1 |
| 810 s | COc1ccc(C)cc1NC(=O)C1CCN(S(=O)(=O)c2cn(C(C)C)cn2)CC1 |
| 836 s | CC1=C(c2ccc(C)cc2)S(=O)(=O)N=C1N1CCCN(C(=O)NC(C)(C)C)CC1 |
| 777 s | Cc1ccc(C)c(NC(=O)c2cnn3c2CCCC3)c1 |
| 583 s | O=C(NCc1ccncc1)C1=C2CCCN2c2ccc(F)cc2S1(=O)=O |
| 687 s | COc1ccccc1NC(=O)N1CCCN(Cc2nc3cc(Cl)ccc3o2)CC1 |
| 602 s | Cc1nc2c(c(=O)n1CC(=O)NC1CCCC1)CCN(Cc1ccccc1)C2 |
| 937 s | O=C(c1csc(-c2ccc(N3CCCC3)nc2)n1)N1CCCCCC1 |
| 820 s | COc1ccc(-c2c(C)noc2NC(C)=O)cc1S(=O)(=O)Nc1ccc(Cl)cc1C |
| 605 s | Cc1cnc(-c2ccncc2)n1C1CCN(S(=O)(=O)c2ccc3c(c2)CCC3)C1 (centres undefined) |
| 577 s | O=C(CCCn1ncn2c(cc3occc32)c1=O)N1CCN(c2ccccn2)CC1 |
| 964 s | COc1cccc(N2CCN(c3ccnc(SCC(=O)Nc4cc(Cl)ccc4OC)n3)CC2)c1 |
| 568 s | CC(=O)c1ccc(Nc2c(C(=O)N3CCOCC3)cnc3nc(C)ccc23)cc1 |
